Laboratory results as given in PMC9597602, “Metal Complexes as Antifungals? From a Crowd-Sourced Compound Library to the First In Vivo Experiments” (JACS Au, 2022).
“And” between values parts separate entries of the source, which are not always exact repeats. Equal values may be shown once. Read-outs that look alike come from different tables or passages of the source. Starred links: 1 amine or outer side, 2 acyl side, 3 side chain; linkers in the order of their positions; H or OH if unused. Positions of bridges follow the written chain, without caps; N, C: chain ends. Non-standard residues stand in square brackets, D forms with d. Residues, ends and D or L forms follow the SMILES beside them. *: point of attachment. pTerphenylCO(4''-OnC5H11) = CCCCCOc1ccc(-c2ccc(-c3ccc(C(=O)*)cc3)cc2)cc1; Orn(4R-OH,5R-OH) = O=C([C@H](C[C@@H](O)[C@@H](O)N[*:3])N[*:1])[*:2]; hTyr(3S-OH,4S-OH) = N[C@H](C(=O)O)[C@H](O)[C@@H](O)c1ccc(O)cc1; Pro(3S-OH,4S-Me) = C[C@H]1CN[C@H](C(=O)O)[C@H]1O; Hyp = O=C(O)[C@@H]1C[C@@H](O)CN1

Legend:
Type in all cases: cell-based
[1] = tested on: Candida auris CBS10913 JCM 15448; assay: Antifungal MIC assay, extended panel; details: Candidozyma auris, comparator antifungals, read-out: MIC* Candida auris CBS10913
Procedure: (§1) For the fungal assays, both fungi (yeast) strains were cultured for 3 days on Yeast Extract-Peptone Dextrose (YPD; Becton Dickinson 242720) agar at 30 °C. A yeast suspension of 1 × 10^6 to 5 × 10^6 CFU/mL (as determined by OD530) was prepared from five colonies from the agar plates, subsequently diluted with Yeast Nitrogen Base media (YNB; Becton Dickinson 233520), and added to each well of the compound containing plates (384-well plates, NBS; Corning CLS3640), giving a final cell density of 2.5 × 10^3 CFU/mL and a total volume of 50 μL. Plates were covered and incubated at 35 °C for 36 h without shaking. […] MIC […] Reference Method for Broth Dilution Antifungal Susceptibility Testing of Yeasts. […] Fluconazole (Sigma F8929) was used as internal control on each plate for all strains. All compounds were tested as two technical replicates in two to four independent biological assays, n = 4–8 final data.

[2] = tested on: Candida auris CBS12373 KCTC 17810; assay: Antifungal MIC assay, extended panel; details: Candidozyma auris, comparator antifungals, read-out: MIC* Candida auris CBS12373
Procedure: as §1

[3] = tested on: Cryptococcus deuterogattii CBS7750 VGII; Serotype B; assay: Antifungal MIC assay, extended panel; details: Cryptococcus deuterogattii, CBS7750, comparator antifungals
Procedure: (§2) For the fungal assays, both fungi (yeast) strains were cultured for 3 days on Yeast Extract-Peptone Dextrose (YPD; Becton Dickinson 242720) agar at 30 °C. A yeast suspension of 1 × 10^6 to 5 × 10^6 CFU/mL (as determined by OD530) was prepared from five colonies from the agar plates, subsequently diluted with Yeast Nitrogen Base media (YNB; Becton Dickinson 233520), and added to each well of the compound containing plates (384-well plates, NBS; Corning CLS3640), giving a final cell density of 2.5 × 10^3 CFU/mL and a total volume of 50 μL. Plates were covered and incubated at 35 °C for 36 h without shaking. […] MIC values were recorded as the lowest concentration at which the growth was inhibited by ≥80%, equivalent to ″optically clear-to-slightly hazy″ or MIC score of 0–1 as per CLSI guidelines M27 Reference Method for Broth Dilution Antifungal Susceptibility Testing of Yeasts. […] Fluconazole (Sigma F8929) was used as internal control on each plate for all strains. All compounds were tested as two technical replicates in two to four independent biological assays, n = 4–8 final data.

[4] = tested on: Candida glabrata ATCC 90030 NCCLS 84; assay: Antifungal MIC assay, extended panel; details: Nakaseomyces glabratus, ATCC90030, comparator antifungals
Procedure: as §2

[5] = tested on: Cryptococcus deuterogattii ATCC 32609 VGII; assay: Antifungal MIC assay, extended panel; details: Cryptococcus deuterogattii, ATCC32609, comparator antifungals
Procedure: as §2

[6] = tested on: Candida tropicalis ATCC 750; assay: Antifungal MIC assay, extended panel; details: Candida tropicalis, ATCC750, comparator antifungals
Procedure: as §2

[7] = tested on: Cryptococcus neoformans H99 ATCC 208821 type strain; assay: Antifungal MIC assay; details: Cryptococcus neoformans
Procedure: as §2

[8] = tested on: Candida albicans ATCC 90028 NCCLS11; assay: Antifungal MIC assay; details: Candida albicans, ATCC90028, comparator antifungals, read-out: MIC* Candida albicans ATCC 90028
Procedure: as §2, with “[…],” for “MIC values were recorded as the lowest concentration at which the growth was inhibited by ≥80%,”

[9] = ≥80% inhibition, converted with MW of Table S12
[10] = ATCC208821, comparator antifungals, MIC = ≥80% inhibition, read-out: MIC* Cryptococcus neoformans ATCC 208821
[11] = ATCC208821, comparator antifungals, ≥80% inhibition, converted with MW of Table S12, read-out: MIC* Cryptococcus neoformans ATCC 208821

Row | SMILES | MIC ([1]; MIC = ≥80% inhibition) | MIC [1, 9] | MIC ([2]; MIC = ≥80% inhibition) | MIC [2, 9] | MIC ([3]; MIC = ≥80% inhibition) | MIC [3, 9] | MIC ([4]; MIC = ≥80% inhibition) | MIC [4, 9] | MIC ([5]; MIC = ≥80% inhibition) | MIC [5, 9] | MIC ([6]; MIC = ≥80% inhibition) | MIC [6, 9] | MIC [7, 10] | MIC [7, 11] | MIC ([8]; MIC = ≥80% inhibition) | MIC [8, 9] | MIC ([7]; ATCC208821, read-out: MIC* Cryptococcus neoformans ATCC 208821)
1 | Nc1nc(=O)[nH]cc1F [5-Fluorocytosine, reference compound] | ≤ 0.002 µg/mL | ≤ 0.021 µM | ≤ 0.002 µg/mL | ≤ 0.021 µM | 0.06 to 0.25 µg/mL | 0.686 to 2.75 µM | > 32 µg/mL | > 351 µM | 0.002 to 0.25 µg/mL | 0.021 to 2.75 µM | 0.001 to 0.002 µg/mL | 0.012 to 0.021 µM | 0.001 to 0.016 µg/mL | 0.0107 to 0.172 µM | ≤ 0.001 µg/mL | ≤ 0.012 µM | 
2 | C[C@@H]1[C@H](O)[C@@H](C)/C=C/C=C/C=C/C=C/C=C/C=C/C=C/[C@H](O[C@@H]2O[C@H](C)[C@@H](O)[C@H](N)[C@@H]2O)C[C@@H]2O[C@](O)(C[C@@H](O)C[C@@H](O)[C@H](O)CC[C@@H](O)C[C@@H](O)CC(=O)O[C@H]1C)C[C@H](O)[C@H]2C(=O)O [Amphotericin B, reference compound] | 16 µg/mL | 24.5 µM | > 128 µg/mL | ≥ 196 µM | 1 to 8 µg/mL | 1.53 to 12.3 µM | ≥ 64 µg/mL | ≥ 98.2 µM | 4 to 16 µg/mL | 6.13 to 24.5 µM | 2 to 4 µg/mL | 3.01 to 6.13 µM | 2 to 8 µg/mL | 3.01 to 12.3 µM | 0.125 to 1 µg/mL | 0.192 to 1.53 µM | 
3 | CCCCCOc1ccc(-c2ccc(-c3ccc(C(=O)N[C@H]4C[C@@H](O)[C@@H](O)NC(=O)[C@@H]5[C@@H](O)[C@@H](C)CN5C(=O)[C@H]([C@@H](C)O)NC(=O)[C@H]([C@H](O)[C@@H](O)c5ccc(O)cc5)NC(=O)[C@@H]5C[C@@H](O)CN5C(=O)[C@H]([C@@H](C)O)NC4=O)cc3)cc2)cc1 [Anidulafungin, reference compound] ({pTerphenylCO(4''-OnC5H11)}-[Orn(4R-OH,5R-OH)]T[Hyp][hTyr(3S-OH,4S-OH)]T[Pro(3S-OH,4S-Me)]; lactam 1-C) | 0.031 to 0.125 µg/mL | 0.027 to 0.11 µM | 0.25 µg/mL | 0.219 µM | 0.06 to 0.25 µg/mL | 0.055 to 0.219 µM | 0.008 µg/mL | 0.007 µM | 0.003 to 0.25 µg/mL | 0.003 to 0.219 µM | 0.004 to 0.008 µg/mL | 0.003 to 0.007 µM |  |  | 0.031 to 0.125 µg/mL | 0.027 to 0.11 µM | 0.016 µg/mL to 0.125 µg/mL and 0.014 µM to 0.11 µM
4 | CC[C@H](C)C[C@H](C)CCCCCCCCC(=O)N[C@H]1C[C@@H](O)[C@@H](NCCN)NC(=O)[C@@H]2[C@@H](O)CCN2C(=O)[C@H]([C@H](O)CCN)NC(=O)[C@H]([C@H](O)[C@@H](O)c2ccc(O)cc2)NC(=O)[C@@H]2C[C@@H](O)CN2C(=O)[C@H]([C@@H](C)O)NC1=O [Caspofungin, reference compound] | 6.25 µg/mL | 5.72 µM | 12.5 µg/mL | 11.4 µM | 0.06 to 0.1 µg/mL | 0.029 to 0.089 µM | 6.25 to 12.5 µg/mL | 5.72 to 11.4 µM | 0.1 to 0.63 µg/mL |  | 1.56 µg/mL | 1.43 µM | 0.098 to 1.56 µg/mL | 0.089 to 1.43 µM | 0.391 to 1.56 µg/mL | 0.357 to 1.43 µM | 
5 | CCC(C)n1ncn(-c2ccc(N3CCN(c4ccc(OCC5COC(Cn6cncn6)(c6ccc(Cl)cc6Cl)O5)cc4)CC3)cc2)c1=O (stereo not shown) [Itraconazole, reference compound] | 0.063 µg/mL | 0.089 µM | 2 µg/mL | 2.83 µM | 2 to 4 µg/mL | 2.83 to 5.67 µM | 32 µg/mL | 45 µM | 2 to 8 µg/mL | 2.83 to 11.3 µM | 2 µg/mL | 2.83 µM | 1 to 2 µg/mL | 1.42 to 2.83 µM | 0.062 to 0.25 µg/mL | 0.089 to 0.354 µM | 
6 | CC[C@@H]([C@H](C)O)n1ncn(-c2ccc(N3CCN(c4ccc(OC[C@@H]5CO[C@@](Cn6cncn6)(c6ccc(F)cc6F)C5)cc4)CC3)cc2)c1=O [Posaconazole, reference compound] | 0.031 to 0.063 µg/mL | 0.063 to 0.126 µM | 2 µg/mL | 4.04 µM | 0.06 to 0.125 µg/mL | 0.126 to 0.253 µM | 2 µg/mL | 4.04 µM | 0.015 to 0.25 µg/mL | 0.032 to 0.506 µM | 0.125 µg/mL | 0.253 µM | 0.016 to 0.125 µg/mL | 0.032 to 0.253 µM | 0.001 to 0.031 µg/mL | 0.002 to 0.063 µM | 
